Results reported in patent US20110166112A1, “METHOD FOR STIMULATING PLATELET PRODUCTION” (Eisai, Inc., priority 2009, published 2011).

Test system: subjects with chronic idiopathic thrombocytopenic purpura (ITP)
Experiment: Phase 2 28-day study of E5501 tablets: safety and tolerability (TEAEs, discontinuations)
Format: in vivo, human
Conditions: for Discontinued study, primary reason Adverse Event or SAE / Discontinued study, primary reason Platelet Count Increase to ≧500 K/mm^3: randomized/safety/FAS; for Blood and lymphatic system disorders / Cardiac disorders / Eye disorders / Gastritis haemorrhagic / Gastrointestinal disorders / Infections and infestations / Myocardial infarction / Nervous system disorders / Pneumonia / Retinal artery occlusion / Thrombocytopenia / Transient ischaemic attack: serious TEAE
Protocol: This was a phase 2, multi-center, double-blind, randomized, placebo-controlled, dose-ranging, parallel group study of E5501 tablets, used in the treatment of subjects with chronic idiopathic thrombocytopenic purpura (ITP) refractory to or relapsed after at least one prior ITP therapy. Subjects who met all entry criteria were randomly assigned in a 3:3:3:3:1 ratio to one of the following five treatment groups dosed daily for 28 days: 1) E5501 2.5 mg; 2) E5501 5 mg; 3) E5501 10 mg; 4) E5501 20 mg; or 5) placebo (PBO). Each E5501 dosing group consisted of 15 subjects while the PBO group consisted of 5 subjects. All study subjects were evaluated weekly (days 7, 14, 21 and 28) for safety and efficacy while receiving study treatment, with a final assessment for safety and effectiveness performed 4 weeks after the last study dose (day 56) unless the subject entered the follow-on study. Platelet counts were also measured on day 3 and day 5.
The safety and tolerability parameters included adverse events, clinical laboratory parameters, study drug exposure, vital electrocardiograms, concomitant medications, serum pregnancy tests for women of childbearing potential and physical examinations including height, weight, general appearance and recording of vital signs.
The populations of interest were defined as follows: • The randomized population included all subjects who were randomized into the study. • The safety population included all randomized subjects who receive at least one dose of study drug and have at least one safety assessment. • The pharmacokinetic (PK) population included all subjects who provided blood sample for analysis of E5501. A subject was included in this population if the subject had at least one blood draw for PK assessment. • The full analysis set (FAS) included all subjects who provided adequate data to derive at least one efficacy assessment. […] The day 28 visit window was defined to be from day 25, to last dose day+1, inclusively; • Other major protocol violations that impacted the platelet endpoint evaluation. Results from Planned Analyses
Subject Disposition. Sixty four subjects were randomly assigned to treatment in this study. All treated subjects provided adequate efficacy data and therefore were included in the FAS population. The number and percentage of subjects who completed treatment or discontinued prematurely were summarized by treatment groups as shown in Table 1. In addition, the number and percentage of subjects who withdrew were summarized by reason for discontinuation by treatment group. The majority (>85%) of subjects completed the study across all dose groups for the FAS, randomized, and safety populations. Seven subjects who discontinued the study early all were from E5501 dose groups: two subjects in each of 2.5, 10 and 20 mg dose groups and one subject in the 5 mg dose group.

In the case of `O=C(Nc1nc(-c2cc(Cl)cs2)c(N2CCN(C3CCCCC3)CC2)s1)c1cnc(N2CCC(C(=O)O)CC2)c(Cl)c1` [E5501, 1-(3-chloro-5-{[4-(4-chlorothiophen-2-yl)-5-(4-cyclohexylpiperazin-1-yl)thiazol-2-yl]carbamoyl}pyridine-2-yl)piperidine-4-carboxylic acid], the Diarrhoea (TEAE, Total E5501) is reported as 5 (8.5) n (%), the Ecchymosis (TEAE, Total E5501) is reported as 3 (5.1) n (%) and the Epistaxis (TEAE, Total E5501) is reported as 9 (15.3) n (%). For the same molecule, the Fatigue (TEAE, Total E5501) was 12 (20.3) n (%), the Headache (TEAE, Total E5501) was 12 (20.3) n (%) and the Migraine (TEAE, Total E5501) was 2 (3.4) n (%). For the same molecule, the Nausea (TEAE, Total E5501) was 3 (5.1) n (%), the Pain in extremity (TEAE, Total E5501) was 3 (5.1) n (%) and the Petechiae (TEAE, Total E5501) was 2 (3.4) n (%). The Platelet count increased (TEAE, Total E5501) was 4 (6.8) n (%), the “Upper respiratory tract infection” value (TEAE, Total E5501) was 3 (5.1) n (%) and the Vomiting (TEAE, Total E5501) was 4 (6.8) n (%). The Death (Total E5501) was 0 n (%), the “Serious TEAEs (Any Serious TEAE)” value (Total E5501) was 3 (5.1) n (%) and the “TEAE Leading to Study Treatment Dose Interruption” value (Total E5501) was 3 (5.1) n (%). For the same molecule, the “TEAE Leading to Study Treatment Withdrawal” value (Total E5501) was 4 (6.8) n (%), the TEAEs (Total E5501) was 50 (84.7) n (%) and the “Treatment-Related Serious TEAEs” value (Total E5501) was 1 (1.7) n (%). The “Treatment-Related TEAEs” value (Total E5501) was 35 (59.3) n (%), the “TEAE leading to study treatment interruption” value (all E5501) was 3 cases and the “TEAE leading to withdrawal of study treatment” value (all E5501) was 4 cases. The “subjects with a TEAE leading to study drug withdrawal” value (all E5501) was 6.8%, the Epistaxis (all E5501-treated subjects) was 15.3% and the Fatigue (all E5501-treated subjects) was 20.3%. For the same molecule, the Headache (all E5501-treated subjects) was 20.3%, the “subjects who experienced a treatment emergent adverse event (TEAE)” value (all E5501-treated subjects) was 84.7% and the “subjects with TEAE possibly or probably related to E5501” value (all E5501-treated subjects) was 59.3%. The “subjects who withdrew due to an AE” value (one for each of the 5 and 10 mg dose groups) was “two”, the “number of serious TEAEs” value (overall) was 6 and the “Discontinued study, primary reason Adverse Event or SAE” value (2.5 mg) was 0 n (%). The “Discontinued study, primary reason Platelet Count Increase to ≧500 K/mm^3” value (2.5 mg) was 0 n (%), the “Discontinued study, primary reason Adverse Event or SAE” value (5 mg) was 1 (6.7) n (%) and the “Discontinued study, primary reason Platelet Count Increase to ≧500 K/mm^3” value (5 mg) was 0 n (%). The “Discontinued study, primary reason Adverse Event or SAE” value (10 mg) was 1 (7.1) n (%), the “Discontinued study, primary reason Platelet Count Increase to ≧500 K/mm^3” value (10 mg) was 0 n (%) and the “Discontinued study, primary reason Adverse Event or SAE” value (20 mg) was 0 n (%). For the same molecule, the “Discontinued study, primary reason Platelet Count Increase to ≧500 K/mm^3” value (20 mg) was 2 (13.3) n (%), the “Discontinued study, primary reason Adverse Event or SAE” value (Total E5501) was 2 (3.4) n (%) and the “Discontinued study, primary reason Platelet Count Increase to ≧500 K/mm^3” value (Total E5501) was 2 (3.4) n (%). The “Blood and lymphatic system disorders” value (2.5 mg) was 1 (6.7) n (%), the Cardiac disorders (2.5 mg) was 0 n (%) and the Eye disorders (2.5 mg) was 0 n (%). For the same molecule, the Gastritis haemorrhagic (2.5 mg) was 1 (6.7) n (%), the Gastrointestinal disorders (2.5 mg) was 1 (6.7) n (%) and the Infections and infestations (2.5 mg) was 0 n (%). For the same molecule, the Myocardial infarction (2.5 mg) was 0 n (%), the Nervous system disorders (2.5 mg) was 0 n (%) and the Pneumonia (2.5 mg) was 0 n (%). The Retinal artery occlusion (2.5 mg) was 0 n (%), the Thrombocytopenia (2.5 mg) was 1 (6.7) n (%) and the Transient ischaemic attack (2.5 mg) was 0 n (%). The “Blood and lymphatic system disorders” value (5 mg) was 0 n (%), the Cardiac disorders (5 mg) was 0 n (%) and the Eye disorders (5 mg) was 0 n (%). For the same molecule, the Gastritis haemorrhagic (5 mg) was 0 n (%), the Gastrointestinal disorders (5 mg) was 0 n (%) and the Infections and infestations (5 mg) was 0 n (%). The Myocardial infarction (5 mg) was 0 n (%), the Nervous system disorders (5 mg) was 0 n (%) and the Pneumonia (5 mg) was 0 n (%). For the same molecule, the Retinal artery occlusion (5 mg) was 0 n (%), the Thrombocytopenia (5 mg) was 0 n (%) and the Transient ischaemic attack (5 mg) was 0 n (%). The “Blood and lymphatic system disorders” value (10 mg) was 0 n (%), the Cardiac disorders (10 mg) was 1 (7.1) n (%) and the Eye disorders (10 mg) was 1 (7.1) n (%). For the same molecule, the Gastritis haemorrhagic (10 mg) was 0 n (%), the Gastrointestinal disorders (10 mg) was 0 n (%) and the Infections and infestations (10 mg) was 1 (7.1) n (%). The Myocardial infarction (10 mg) was 1 (7.1) n (%), the Nervous system disorders (10 mg) was 1 (7.1) n (%) and the Pneumonia (10 mg) was 1 (7.1) n (%). For the same molecule, the Retinal artery occlusion (10 mg) was 1 (7.1) n (%), the Thrombocytopenia (10 mg) was 0 n (%) and the Transient ischaemic attack (10 mg) was 1 (7.1) n (%). For the same molecule, the “Blood and lymphatic system disorders” value (20 mg) was 0 n (%), the Cardiac disorders (20 mg) was 0 n (%) and the Eye disorders (20 mg) was 0 n (%). For the same molecule, the Gastritis haemorrhagic (20 mg) was 0 n (%), the Gastrointestinal disorders (20 mg) was 0 n (%) and the Infections and infestations (20 mg) was 0 n (%). For the same molecule, the Myocardial infarction (20 mg) was 0 n (%), the Nervous system disorders (20 mg) was 0 n (%) and the Pneumonia (20 mg) was 0 n (%). The Retinal artery occlusion (20 mg) was 0 n (%), the Thrombocytopenia (20 mg) was 0 n (%) and the Transient ischaemic attack (20 mg) was 0 n (%). For the same molecule, the “Blood and lymphatic system disorders” value (Total E5501) was 1 (1.7) n (%), the Cardiac disorders (Total E5501) was 1 (1.7) n (%) and the Eye disorders (Total E5501) was 1 (1.7) n (%). The Gastritis haemorrhagic (Total E5501) was 1 (1.7) n (%), the Gastrointestinal disorders (Total E5501) was 1 (1.7) n (%) and the Infections and infestations (Total E5501) was 1 (1.7) n (%). For the same molecule, the Myocardial infarction (Total E5501) was 1 (1.7) n (%), the Nervous system disorders (Total E5501) was 1 (1.7) n (%) and the Pneumonia (Total E5501) was 1 (1.7) n (%). For the same molecule, the Retinal artery occlusion (Total E5501) was 1 (1.7) n (%), the Thrombocytopenia (Total E5501) was 1 (1.7) n (%) and the Transient ischaemic attack (Total E5501) was 1 (1.7) n (%).
